The record followed here is patent US12441726B2, “Compounds and uses thereof” (Foghorn Therapeutics Inc., priority 2020, dated 2025).

For the first assay, the target named is BRG-1 (Homo sapiens, UniProt P51532). The assay is described as follows: ATPase catalytic activity assay (ADP-Glo), BRG-1.
Chain of BRG-1 (P51532 whole entry): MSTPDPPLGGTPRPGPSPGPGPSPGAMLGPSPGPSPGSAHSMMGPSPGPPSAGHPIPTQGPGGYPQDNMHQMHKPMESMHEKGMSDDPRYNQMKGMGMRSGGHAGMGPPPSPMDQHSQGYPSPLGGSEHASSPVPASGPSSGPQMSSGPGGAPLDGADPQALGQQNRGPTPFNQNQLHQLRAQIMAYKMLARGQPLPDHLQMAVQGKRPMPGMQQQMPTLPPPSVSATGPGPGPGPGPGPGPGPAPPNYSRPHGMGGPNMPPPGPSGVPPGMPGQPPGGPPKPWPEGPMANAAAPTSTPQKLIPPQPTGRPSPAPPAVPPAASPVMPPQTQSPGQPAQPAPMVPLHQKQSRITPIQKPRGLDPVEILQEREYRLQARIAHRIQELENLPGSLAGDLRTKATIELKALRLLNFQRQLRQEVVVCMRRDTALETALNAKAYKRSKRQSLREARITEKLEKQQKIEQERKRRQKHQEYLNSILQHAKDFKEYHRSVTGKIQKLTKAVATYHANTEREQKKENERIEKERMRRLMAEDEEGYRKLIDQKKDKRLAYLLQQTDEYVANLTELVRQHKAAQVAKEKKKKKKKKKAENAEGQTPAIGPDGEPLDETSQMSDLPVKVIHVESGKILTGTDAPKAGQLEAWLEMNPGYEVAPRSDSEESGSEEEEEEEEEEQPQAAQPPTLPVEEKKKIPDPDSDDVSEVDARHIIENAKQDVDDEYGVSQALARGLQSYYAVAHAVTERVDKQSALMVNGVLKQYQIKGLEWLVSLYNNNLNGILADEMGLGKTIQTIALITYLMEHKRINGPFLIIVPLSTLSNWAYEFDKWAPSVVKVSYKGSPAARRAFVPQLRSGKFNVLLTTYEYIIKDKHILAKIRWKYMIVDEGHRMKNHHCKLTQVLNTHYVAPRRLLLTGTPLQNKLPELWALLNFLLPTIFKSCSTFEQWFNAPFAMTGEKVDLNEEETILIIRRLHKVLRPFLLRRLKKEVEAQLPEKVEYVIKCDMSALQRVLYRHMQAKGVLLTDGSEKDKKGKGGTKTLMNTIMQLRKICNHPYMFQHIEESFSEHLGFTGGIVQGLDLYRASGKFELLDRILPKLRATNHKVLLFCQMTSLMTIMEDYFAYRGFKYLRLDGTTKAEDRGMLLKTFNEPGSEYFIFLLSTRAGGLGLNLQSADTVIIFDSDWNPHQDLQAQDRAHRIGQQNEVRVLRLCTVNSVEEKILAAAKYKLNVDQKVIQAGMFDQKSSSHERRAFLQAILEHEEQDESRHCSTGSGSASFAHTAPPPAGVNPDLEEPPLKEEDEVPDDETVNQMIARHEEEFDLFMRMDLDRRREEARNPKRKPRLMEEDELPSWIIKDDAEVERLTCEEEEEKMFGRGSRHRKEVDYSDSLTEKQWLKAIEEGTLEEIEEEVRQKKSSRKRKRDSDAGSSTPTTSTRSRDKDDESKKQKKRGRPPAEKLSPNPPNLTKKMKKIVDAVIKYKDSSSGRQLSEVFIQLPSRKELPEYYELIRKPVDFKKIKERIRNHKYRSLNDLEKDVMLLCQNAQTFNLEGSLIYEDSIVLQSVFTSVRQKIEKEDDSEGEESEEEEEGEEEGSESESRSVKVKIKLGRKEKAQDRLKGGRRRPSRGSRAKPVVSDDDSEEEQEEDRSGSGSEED
Details: not given
In general terms: ADP-Glo turns the ADP formed in a reaction into a luminescent signal.
As for `O=C(NCc1cc2nc(-c3cncc(C4CC4)n3)ccc2cn1)c1cc(F)c2c(c1)[C@](F)(C(F)F)COC2` [Compound 237], the IC50 (as a rule, the concentration that gives 50% inhibition) was 100 to 500 nM.

Turning to `C[C@@]1(C#N)COCc2ccc(C(=O)NCc3cc([C@H]4C[C@H](c5cccc(C6CC6)n5)C4)ccn3)cc21` [Compound 77], the IC50 was in the range of 500 to 1000 nM.

`C[C@H](O)c1cccc(-c2ccc3cnc(CNC(=O)c4ccc5c(c4)[C@](C)(F)COC5)cc3n2)n1` [Compound 213] returned an IC50 of 500 to 1000 nM.

Turning to `C[C@@]1(C#N)COCc2ccc(C(=O)NCc3cc4nc(N5CCN(C6CC6)C5=O)ccc4cn3)cc21` [Compound 312], the IC50 is greater than 1000 nM.

With `COc1cc(N2CCC2)ccc1-c1ccc2cnc(CNC(=O)c3ccc4c(c3)[C@](C)(C#N)COC4)cc2n1` [Compound 146], the half-maximal inhibitory concentration (IC50) fell in the range of 100 to 500 nM.

For `COc1cccc([C@H]2C[C@H](c3ccnc(CNC(=O)c4ccc5c(c4)[C@](C)(C#N)COC5)c3)C2)c1` [Compound 74], the IC50 is 100 to 500 nM.

In turn, `CC(=O)N(C)c1cccc(-c2ccc3cnc(CNC(=O)c4ccc5c(c4)[C@](C)(C#N)COC5)cc3n2)n1` [Compound 396] yielded an IC50 greater than 1000 nM.

As for `CCC(C)(O)c1cccc(-c2ccc3cnc(CNC(=O)c4ccc5c(c4)[C@](C)(F)COC5)cc3n2)n1` (stereo partly shown) [Compound 205], the IC50 fell in the range of 500 to 1000 nM.

For `Cn1cc2c(-c3ccc4cnc(CNC(=O)c5ccc6c(c5)[C@](C)(C#N)COC6)cc4n3)cccc2n1` [Compound 151], the IC50 was in the range of 500 to 1000 nM.

Take `CN(C)c1cccc([C@H]2C[C@H](c3ccnc(CNC(=O)c4ccc5c(c4)[C@](C)(C#N)COC5)c3)C2)n1` [Compound 76]: the IC50 is greater than 1000 nM.

On to `Cn1ncc2c1CCN(c1ccc3cnc(CNC(=O)c4ccc5c(c4)[C@](C)(C#N)COC5)cc3n1)C2` [Compound 453], for which the IC50 was in the range of 500 to 1000 nM.

`C[C@@]1(C#N)COCc2ccc(C(=O)NCc3cc(C#Cc4cccc(C(F)F)c4)ccn3)cc21` [Compound 17]: the IC50 is greater than 1000 nM.

Take `C[C@@]1(F)COCc2ccc(C(=O)NCc3cc4nc(-c5ccc(=O)n(CC(F)F)n5)ccc4cn3)cc21` [Compound 318]: the IC50 is 500 to 1000 nM.

The same assay, now with this note: 1 h, read-out: BRG1 Max % Inhibition, ADP-Glo, 30 nM BRG-1, 400 μM ATP.
With `O=C(NCc1cc2nc(-c3cncc(C4CC4)n3)ccc2cn1)c1cc(F)c2c(c1)[C@](F)(C(F)F)COC2` [Compound 237], the Emax worked out at 92%.

For the molecule `C[C@@]1(C#N)COCc2ccc(C(=O)NCc3cc([C@H]4C[C@H](c5cccc(C6CC6)n5)C4)ccn3)cc21` [Compound 77], the Emax was 102%.

Turning to `C[C@H](O)c1cccc(-c2ccc3cnc(CNC(=O)c4ccc5c(c4)[C@](C)(F)COC5)cc3n2)n1` [Compound 213], the Emax was 63%.

With `C[C@@]1(C#N)COCc2ccc(C(=O)NCc3cc4nc(N5CCN(C6CC6)C5=O)ccc4cn3)cc21` [Compound 312], the Emax worked out at 46%.

Turning to `COc1cc(N2CCC2)ccc1-c1ccc2cnc(CNC(=O)c3ccc4c(c3)[C@](C)(C#N)COC4)cc2n1` [Compound 146], the Emax came out at 80%.

With `COc1cccc([C@H]2C[C@H](c3ccnc(CNC(=O)c4ccc5c(c4)[C@](C)(C#N)COC5)c3)C2)c1` [Compound 74], the Emax worked out at 87%.

As for `CC(=O)N(C)c1cccc(-c2ccc3cnc(CNC(=O)c4ccc5c(c4)[C@](C)(C#N)COC5)cc3n2)n1` [Compound 396], the Emax was found to be 32%.

Turning to `CCC(C)(O)c1cccc(-c2ccc3cnc(CNC(=O)c4ccc5c(c4)[C@](C)(F)COC5)cc3n2)n1` (stereo partly shown) [Compound 205], the Emax worked out at 52%.

In the case of `Cn1cc2c(-c3ccc4cnc(CNC(=O)c5ccc6c(c5)[C@](C)(C#N)COC6)cc4n3)cccc2n1` [Compound 151], the Emax was 56%.

For the molecule `CN(C)c1cccc([C@H]2C[C@H](c3ccnc(CNC(=O)c4ccc5c(c4)[C@](C)(C#N)COC5)c3)C2)n1` [Compound 76], the Emax is 91%.

Turning to `Cn1ncc2c1CCN(c1ccc3cnc(CNC(=O)c4ccc5c(c4)[C@](C)(C#N)COC5)cc3n1)C2` [Compound 453], the Emax is 61%.

As for `C[C@@]1(C#N)COCc2ccc(C(=O)NCc3cc(C#Cc4cccc(C(F)F)c4)ccn3)cc21` [Compound 17], the Emax was determined as 58%.

As for `C[C@@]1(F)COCc2ccc(C(=O)NCc3cc4nc(-c5ccc(=O)n(CC(F)F)n5)ccc4cn3)cc21` [Compound 318], the Emax was 55%.

The next assay deals with BRM (Homo sapiens, UniProt P51531). Description: ATPase catalytic activity assay (ADP-Glo), BRM. The settings on record: 30 nM BRM, 400 μM ATP.
Chain of BRM (P51531 whole entry): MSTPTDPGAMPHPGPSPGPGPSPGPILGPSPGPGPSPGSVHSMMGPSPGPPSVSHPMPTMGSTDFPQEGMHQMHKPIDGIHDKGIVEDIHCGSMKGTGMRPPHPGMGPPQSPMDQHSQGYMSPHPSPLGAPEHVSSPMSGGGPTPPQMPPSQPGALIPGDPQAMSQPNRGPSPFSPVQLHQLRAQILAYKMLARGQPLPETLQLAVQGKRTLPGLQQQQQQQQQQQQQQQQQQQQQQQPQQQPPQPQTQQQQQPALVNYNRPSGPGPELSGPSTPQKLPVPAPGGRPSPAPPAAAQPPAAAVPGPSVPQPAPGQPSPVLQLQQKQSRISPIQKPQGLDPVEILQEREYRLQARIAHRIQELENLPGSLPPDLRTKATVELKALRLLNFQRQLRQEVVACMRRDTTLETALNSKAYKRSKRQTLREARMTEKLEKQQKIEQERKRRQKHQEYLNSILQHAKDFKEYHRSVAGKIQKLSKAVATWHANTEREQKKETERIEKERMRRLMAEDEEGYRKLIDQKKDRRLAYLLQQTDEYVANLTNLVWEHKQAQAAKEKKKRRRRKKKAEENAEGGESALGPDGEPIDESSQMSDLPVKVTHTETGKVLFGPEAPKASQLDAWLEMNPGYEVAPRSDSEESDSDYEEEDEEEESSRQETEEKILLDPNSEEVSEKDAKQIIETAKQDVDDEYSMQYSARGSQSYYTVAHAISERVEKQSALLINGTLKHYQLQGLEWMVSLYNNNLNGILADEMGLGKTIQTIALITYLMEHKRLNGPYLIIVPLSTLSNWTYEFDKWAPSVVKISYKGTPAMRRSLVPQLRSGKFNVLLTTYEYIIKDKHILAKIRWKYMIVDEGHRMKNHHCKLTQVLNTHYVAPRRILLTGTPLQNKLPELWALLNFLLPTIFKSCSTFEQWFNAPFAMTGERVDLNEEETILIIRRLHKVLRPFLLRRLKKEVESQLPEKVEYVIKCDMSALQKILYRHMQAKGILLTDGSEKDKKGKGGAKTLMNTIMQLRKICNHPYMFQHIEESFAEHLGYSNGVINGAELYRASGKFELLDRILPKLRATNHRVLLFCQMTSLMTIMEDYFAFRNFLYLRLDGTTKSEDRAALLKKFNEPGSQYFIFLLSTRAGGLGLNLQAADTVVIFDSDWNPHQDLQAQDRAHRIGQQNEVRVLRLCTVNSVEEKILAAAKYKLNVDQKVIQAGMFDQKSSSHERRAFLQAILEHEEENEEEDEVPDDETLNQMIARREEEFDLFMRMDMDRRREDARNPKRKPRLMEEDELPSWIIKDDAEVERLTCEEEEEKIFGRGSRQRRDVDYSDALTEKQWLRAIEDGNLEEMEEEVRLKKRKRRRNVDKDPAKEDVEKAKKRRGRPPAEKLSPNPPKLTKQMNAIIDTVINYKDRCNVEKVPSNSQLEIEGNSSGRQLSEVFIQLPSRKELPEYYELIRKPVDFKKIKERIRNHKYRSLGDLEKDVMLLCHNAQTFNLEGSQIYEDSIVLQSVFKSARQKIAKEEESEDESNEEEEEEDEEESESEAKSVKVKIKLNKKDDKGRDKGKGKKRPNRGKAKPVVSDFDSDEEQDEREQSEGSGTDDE
Take `O=C(NCc1cc2nc(-c3cncc(C4CC4)n3)ccc2cn1)c1cc(F)c2c(c1)[C@](F)(C(F)F)COC2` [Compound 237]: the “BRM Max % Inhibition” value is given as 100%.

Consider `C[C@@]1(C#N)COCc2ccc(C(=O)NCc3cc([C@H]4C[C@H](c5cccc(C6CC6)n5)C4)ccn3)cc21` [Compound 77], for which the “BRM Max % Inhibition” value is 99%.

Regarding `C[C@H](O)c1cccc(-c2ccc3cnc(CNC(=O)c4ccc5c(c4)[C@](C)(F)COC5)cc3n2)n1` [Compound 213], the “BRM Max % Inhibition” value is listed as 97%.

Turning to `C[C@@]1(C#N)COCc2ccc(C(=O)NCc3cc4nc(N5CCN(C6CC6)C5=O)ccc4cn3)cc21` [Compound 312], the “BRM Max % Inhibition” value is given as 83%.

Consider `COc1cc(N2CCC2)ccc1-c1ccc2cnc(CNC(=O)c3ccc4c(c3)[C@](C)(C#N)COC4)cc2n1` [Compound 146], for which the “BRM Max % Inhibition” value worked out at 98%.

On to `COc1cccc([C@H]2C[C@H](c3ccnc(CNC(=O)c4ccc5c(c4)[C@](C)(C#N)COC5)c3)C2)c1` [Compound 74], for which the “BRM Max % Inhibition” value was determined as 98%.

Turning to `CC(=O)N(C)c1cccc(-c2ccc3cnc(CNC(=O)c4ccc5c(c4)[C@](C)(C#N)COC5)cc3n2)n1` [Compound 396], the “BRM Max % Inhibition” value came to 74%.

Take `CCC(C)(O)c1cccc(-c2ccc3cnc(CNC(=O)c4ccc5c(c4)[C@](C)(F)COC5)cc3n2)n1` (stereo partly shown) [Compound 205]: the “BRM Max % Inhibition” value was 91%.

For the molecule `Cn1cc2c(-c3ccc4cnc(CNC(=O)c5ccc6c(c5)[C@](C)(C#N)COC6)cc4n3)cccc2n1` [Compound 151], the “BRM Max % Inhibition” value was 93%.

For `CN(C)c1cccc([C@H]2C[C@H](c3ccnc(CNC(=O)c4ccc5c(c4)[C@](C)(C#N)COC5)c3)C2)n1` [Compound 76], the “BRM Max % Inhibition” value is recorded as 98%.

In the case of `Cn1ncc2c1CCN(c1ccc3cnc(CNC(=O)c4ccc5c(c4)[C@](C)(C#N)COC5)cc3n1)C2` [Compound 453], the “BRM Max % Inhibition” value was 91%.

For `C[C@@]1(C#N)COCc2ccc(C(=O)NCc3cc(C#Cc4cccc(C(F)F)c4)ccn3)cc21` [Compound 17], the “BRM Max % Inhibition” value was 94%.

For the molecule `C[C@@]1(F)COCc2ccc(C(=O)NCc3cc4nc(-c5ccc(=O)n(CC(F)F)n5)ccc4cn3)cc21` [Compound 318], the “BRM Max % Inhibition” value amounted to 107%.

Still in this assay, the particulars now being: BRM ATPase: IC50 (uM), 30 nM BRM, 400 μM ATP.
As for `O=C(NCc1cc2nc(-c3cncc(C4CC4)n3)ccc2cn1)c1cc(F)c2c(c1)[C@](F)(C(F)F)COC2` [Compound 237], the IC50 was less than 0.1 µM.

`C[C@@]1(C#N)COCc2ccc(C(=O)NCc3cc([C@H]4C[C@H](c5cccc(C6CC6)n5)C4)ccn3)cc21` [Compound 77] returned an IC50 of 0.1 to 0.5 µM.

On to `C[C@H](O)c1cccc(-c2ccc3cnc(CNC(=O)c4ccc5c(c4)[C@](C)(F)COC5)cc3n2)n1` [Compound 213], for which the IC50 was in the range of 0.1 to 0.5 µM.

`C[C@@]1(C#N)COCc2ccc(C(=O)NCc3cc4nc(N5CCN(C6CC6)C5=O)ccc4cn3)cc21` [Compound 312]: the IC50 fell in the range of 0.1 to 0.5 µM.

`COc1cc(N2CCC2)ccc1-c1ccc2cnc(CNC(=O)c3ccc4c(c3)[C@](C)(C#N)COC4)cc2n1` [Compound 146] registered an IC50 of 0.1 to 0.5 µM.

Regarding `COc1cccc([C@H]2C[C@H](c3ccnc(CNC(=O)c4ccc5c(c4)[C@](C)(C#N)COC5)c3)C2)c1` [Compound 74], the IC50 is less than 0.1 µM.

`CC(=O)N(C)c1cccc(-c2ccc3cnc(CNC(=O)c4ccc5c(c4)[C@](C)(C#N)COC5)cc3n2)n1` [Compound 396]: the IC50 lay within 0.1 to 0.5 µM.

`CCC(C)(O)c1cccc(-c2ccc3cnc(CNC(=O)c4ccc5c(c4)[C@](C)(F)COC5)cc3n2)n1` (stereo partly shown) [Compound 205] showed a half-maximal inhibitory concentration (IC50) of 0.1 to 0.5 µM.

As to `Cn1cc2c(-c3ccc4cnc(CNC(=O)c5ccc6c(c5)[C@](C)(C#N)COC6)cc4n3)cccc2n1` [Compound 151], the IC50 is 0.1 to 0.5 µM.

Molecule `CN(C)c1cccc([C@H]2C[C@H](c3ccnc(CNC(=O)c4ccc5c(c4)[C@](C)(C#N)COC5)c3)C2)n1` [Compound 76] returned an IC50 of 0.1 to 0.5 µM.

Consider `Cn1ncc2c1CCN(c1ccc3cnc(CNC(=O)c4ccc5c(c4)[C@](C)(C#N)COC5)cc3n1)C2` [Compound 453], for which the IC50 lay in the range of 0.1 to 0.5 µM.

`C[C@@]1(C#N)COCc2ccc(C(=O)NCc3cc(C#Cc4cccc(C(F)F)c4)ccn3)cc21` [Compound 17] showed a concentration for half-maximal inhibition (IC50) of 0.1 to 0.5 µM.

With `C[C@@]1(F)COCc2ccc(C(=O)NCc3cc4nc(-c5ccc(=O)n(CC(F)F)n5)ccc4cn3)cc21` [Compound 318], the IC50 was in the range of 0.1 to 0.5 µM.
